The values below come from US11236121B2, “Crystalline 19-nor C3,3-disubstituted C21-N-pyrazolyl steroid” (priority 2016, dated 2022).

Converted amounts (≈) assume the structure as drawn. “Also recorded” adds a separate entry of the source. Read-outs that look alike come from different tables or passages of the source.

In general, Solubility refers to how much of the substance goes into solution per volume. Read a low Solubility as a poorly soluble substance. As usually defined, the solubility is the concentration that dissolves in the medium under given conditions.

Data set [1] is classed as physicochemical. On the procedure:
In each experiment, approximately 10 to 20 mg of Form A was suspended in 0.5 mL of a solvent or mixture of solvents. After stirring at RT or 50° C. for 48 hours, the solids were isolated by centrifugation for analysis (wet sample). If the suspensions turned into clear solution, the clear solutions were kept at ambient conditions for slow evaporation.
In one embodiment, the inter-conversion between Forms A, C and K can be studied in a series of slurry conversion experiments conducted in ethyl acetate, n-butanol, and methyl tert-butyl ether (MBTE) at both room temperature (RT) and 50° C. Compound 1 can display moderate solubility, and may yield solvated forms during these screening experiments. The transition temperature between Forms A and C was estimated to be ˜17° C., and the transition temperature between Forms K and C was above 100° C.

The format of data set [2] is physicochemical. The note with it: for stability of the crystalline form in words: XRPD, ambient conditions. On the procedure:
A PANalytical Empyrean X-ray powder diffractometer with a 12-well auto-sampler stage was used for analysis throughout this study. Resolution calibration of the instrument was performed every 6 months, and sensitivity measurements were performed after the sample stage was changed. A silicon (Si) pressed powder sample was used as the reference standard.
The wet cake of Form P (˜5 min air) was dried in two ways: (a) under air at room temperature overnight, and (b) under vacuum at 40° C. for 3 hours. Both dried cakes were analyzed by XRPD, 1H-NMR, and TGA.

The nature of data set [3]: Crystal form and relative stability of slurried solids in EtOAc, checked by XRPD. It is filed as physicochemical. Conditions: for Crystal Form Checked by XRPD: ethyl acetate. How it is done:
During solubility measurements, an XRPD pattern was detected in (a) slurries of Form A in EtOAc at 5° C. (after 1 h) and 20° C. (after 2 days), (b) slurries of Form C in EtOAc at 5° C. (after 1 h) and 20° C. (after 7 days). There was no direct match of this solid form's XRPD pattern to other crystal forms of Compound 1.
(§1) Solubility profiles of Forms A, C and P across a range of temperature can give an indication of the relative stability of different forms within different temperature ranges. Sufficient equilibrium solubility data were collected experimentally covering 5-70° C.

The nature of data set [4]: Hygroscopicity by dynamic vapor sorption (DVS). It is filed as physicochemical. The note with it: for water uptake at 80% RH / water uptake at 95% RH: DVS isotherm; for water uptake at 80% RH / water uptake at 95% RH / form change before and after DVS (XRPD) / hygroscopicity: 25° C.; for form change before and after DVS (XRPD) / hygroscopicity / water uptake at RH less than or equal to 95%: DVS; for water uptake at RH less than or equal to 95%: RH less than or equal to 95% (description section). How it is done:
Dynamic vapor sorption (DVS) was measured via an SMS (Surface Measurement Systems) DVS Intrinsic system. The relative humidity at 25° C. was calibrated against the deliquescence point of LiCl, Mg(NO3)2, and KCl.
The hygroscopicity of Form A, Form C, and Form K were investigated at 25° C. using DVS. The XRPD patterns of each sample before and after DVS were compared in order to investigate any potential form change.

The nature of data set [5]: Equilibrium solubility of Forms A, C and P in ethyl acetate. The data set is classed as physicochemical. On the procedure:
as §1

As to `C[C@@]1(O)CC[C@H]2[C@H](CC[C@@H]3[C@@H]2CC[C@]2(C)[C@@H](C(=O)Cn4cc(C#N)cn4)CC[C@@H]32)C1` [Forms A and K (with Form C seeds)], in data set [1] (Ethyl acetate, RT), the “Final Form after slurry conversion” value is recorded as “Form C”.
For `C[C@@]1(O)CC[C@H]2[C@H](CC[C@@H]3[C@@H]2CC[C@]2(C)[C@@H](C(=O)Cn4cc(C#N)cn4)CC[C@@H]32)C1` [Forms A, C and K], the “Final Form after slurry conversion” value in data set [1] (MBTE, 50° C.) is “Form C”; in data set [1] (MBTE, RT) it was “Form C”; in data set [1] (n-Butanol, 50° C.), “Form C”; in data set [1] (n-Butanol, RT), “Form C”.
Consider `C[C@@]1(O)CC[C@H]2[C@H](CC[C@@H]3[C@@H]2CC[C@]2(C)[C@@H](C(=O)Cn4cc(C#N)cn4)CC[C@@H]32)C1` [Form L], for which the “stability of the crystalline form in words” value (shortened to “stability … in words”) in data set [2] is listed as “metastable”.
Consider `C[C@@]1(O)CC[C@H]2[C@H](CC[C@@H]3[C@@H]2CC[C@]2(C)[C@@H](C(=O)Cn4cc(C#N)cn4)CC[C@@H]32)C1` [Form N], for which the “form after storage (XRPD)” value in data set [2] (overnight, under ambient conditions) is “transforms to Form A”.
With `C[C@@]1(O)CC[C@H]2[C@H](CC[C@@H]3[C@@H]2CC[C@]2(C)[C@@H](C(=O)Cn4cc(C#N)cn4)CC[C@@H]32)C1` [Form H], the “stability … in words” value in data set [2] is listed as “metastable”.
Still for that read-out and setting: as for `C[C@@]1(O)CC[C@H]2[C@H](CC[C@@H]3[C@@H]2CC[C@]2(C)[C@@H](C(=O)Cn4cc(C#N)cn4)CC[C@@H]32)C1` [Form I], the entry is “metastable”.
For `C[C@@]1(O)CC[C@H]2[C@H](CC[C@@H]3[C@@H]2CC[C@]2(C)[C@@H](C(=O)Cn4cc(C#N)cn4)CC[C@@H]32)C1` [Form C], the “transition temperature between Forms A and C” value in data set [1] (estimated from slurry conversion experiments) is about 17 °C. Moreover, in data set [1] (from slurry conversion experiments), the “transition temperature between Forms K and C” value is “above 100 °C”. Also, in data set [1] (slurry conversion in ethyl acetate, n-butanol or methyl tert-butyl ether, room temperature to 50° C.), the “thermodynamic stability compared to Form A and Form K” value is on record as “more thermodynamically stable”. The “solid form detected by XRPD in slurry in EtOAc” value is given as “Form P” in data set [3] (5° C., after 1 h) and “Form P” in data set [3] (20° C., after 7 days). In data set [3] (EtOAc, across the entire processing temperature range (5-70° C. data)), the “relative stability of forms” value is reported as “more stable than Form A”. The “Crystal Form Checked by XRPD” value in data set [3] (20 ° C., 2 day) was “No Form Change”; in data set [3] (30 ° C., 4 h), “No Form Change”; in data set [3] (40 ° C., 7 h) it was “No Form Change”; in data set [3] (50 ° C., 20 h) it was “No Form Change”; in data set [3] (60 ° C., 4 h), “No Form Change”. Besides, in data set [4], the “water uptake at 80% RH” value is 0.12 % by weight. Moreover, the “water uptake at 95% RH” value in data set [4] is reported as “less than 0.30 % by weight”. Also, the “form change before and after DVS (XRPD)” value in data set [4] is “no form change”. In addition, in data set [4], the hygroscopicity result is given as “non-hygroscopic”. Further, the “water uptake at RH less than or equal to 95%” value (from here on “water uptake … to 95%”) in data set [4] was “less than 0.32 weight percent”. In addition, the Solubility in data set [5] (20 ° C., equilibration 2 day) is on record as 11.8 mg/mL (≈ 28.8 mM); in data set [5] (30 ° C., equilibration 4 h), 14.9 mg/mL (≈ 36.4 mM); in data set [5] (40 ° C., equilibration 7 h) it was 17.9 mg/mL (≈ 43.7 mM); in data set [5] (50 ° C., equilibration 20 h), 23.7 mg/mL (≈ 57.9 mM); in data set [5] (60 ° C., equilibration 4 h), 29.8 mg/mL (≈ 72.8 mM).
Turning to `C[C@@]1(O)CC[C@H]2[C@H](CC[C@@H]3[C@@H]2CC[C@]2(C)[C@@H](C(=O)Cn4cc(C#N)cn4)CC[C@@H]32)C1` [Form J], the “stability … in words” value in data set [2] is listed as “metastable”. Moreover, the “form after drying (XRPD)” value in data set [2] (drying at ambient conditions for 3 days) is reported as “transforms to Form A”.
Take `C[C@@]1(O)CC[C@H]2[C@H](CC[C@@H]3[C@@H]2CC[C@]2(C)[C@@H](C(=O)Cn4cc(C#N)cn4)CC[C@@H]32)C1` [Forms A and K]: in data set [1] (Ethyl acetate, 50° C.), the “Final Form after slurry conversion” value is given as “Form C”.
Turning to `C[C@@]1(O)CC[C@H]2[C@H](CC[C@@H]3[C@@H]2CC[C@]2(C)[C@@H](C(=O)Cn4cc(C#N)cn4)CC[C@@H]32)C1` [Form K], in data set [4], the “water uptake at 80% RH” value is recorded as 0.18 % by weight; the “water uptake at 95% RH” value is reported as “less than 0.35 % by weight”; the “form change before and after DVS (XRPD)” value was “no form change”; the hygroscopicity result is “non-hygroscopic”. Besides, the “water uptake … to 95%” value in data set [4] is “less than 0.35 weight percent”.
For `C[C@@]1(O)CC[C@H]2[C@H](CC[C@@H]3[C@@H]2CC[C@]2(C)[C@@H](C(=O)Cn4cc(C#N)cn4)CC[C@@H]32)C1` [Form P], the “relative stability of forms” value in data set [3] (EtOAc, ≤20° C.) is “more stable than both Forms A and C; also recorded: more stable than Form C”. Besides, the “stability in EtOAc” value in data set [3] (EtOAc, ≥35° C.) is recorded as “converts to Form A”. Further, the “Crystal Form Checked by XRPD” value was “Form P” in data set [3] (5 ° C., 20 h); “Form P” in data set [3] (10 ° C., 3 day); “Form P” in data set [3] (15 ° C., 2 day); “No Form Change” in data set [3] (20 ° C., 2 day); “Form P” in data set [3] (25 ° C., 20 h); “Form P” in data set [3] (30 ° C., 20 h). Besides, the “Crystal Form Checked by XRPD” value in data set [3] (40 ° C., 24 h) is “Form P to Form”. For the same compound, the “XRPD pattern of dried cake” value is recorded as “conforming to Form P” in data set [2] (wet cake dried under air at room temperature overnight) and “conforming to Form A” in data set [2] (wet cake dried under vacuum at 40° C. for 3 hours). Further, the solubility at 20 h worked out at 5.4 mg/mL (≈ 13.2 mM) in data set [5] (5 °C, organic solvent or mixture, thermodynamic from solid, equilibration 20 h); 12.6 mg/mL (≈ 30.8 mM) in data set [5] (25 °C, organic solvent or mixture, thermodynamic from solid, equilibration 20 h); 13.5 mg/mL (≈ 33 mM) in data set [5] (30 °C, organic solvent or mixture, thermodynamic from solid, equilibration 20 h). In data set [5] (10 °C, organic solvent or mixture, thermodynamic from solid, equilibration 3 day), the solubility at 3 day came to 6.6 mg/mL (≈ 16.1 mM). Besides, the solubility at 2 day in data set [5] (15 °C, organic solvent or mixture, thermodynamic from solid, equilibration 2 day) was 8 mg/mL (≈ 19.5 mM). In data set [5] (20 ° C., equilibration 2 day), this compound returned a Solubility of 11.4 mg/mL (≈ 27.8 mM).
Turning to `C[C@@]1(O)CC[C@H]2[C@H](CC[C@@H]3[C@@H]2CC[C@]2(C)[C@@H](C(=O)Cn4cc(C#N)cn4)CC[C@@H]32)C1` [Form A], the “solid form detected by XRPD in slurry in EtOAc” value in data set [3] (5° C., after 1 h) was “Form P”; in data set [3] (20° C., after 2 days), “Form P”. The “Crystal Form Checked by XRPD” value in data set [3] (20 ° C., 2 day) is “No Form Change”; in data set [3] (30 ° C., 4 h), “No Form Change”; in data set [3] (40 ° C., 7 h), “No Form Change”; in data set [3] (50 ° C., 20 h), “No Form Change”; in data set [3] (60 ° C., 4 h), “No Form Change”. In data set [4], the “water uptake at 80% RH” value was determined as 0.06 % by weight. Further, the “water uptake at 95% RH” value in data set [4] is “less than 0.12 % by weight”. In data set [4], the “form change before and after DVS (XRPD)” value is “no form change”. Besides, the hygroscopicity result in data set [4] is recorded as “non-hygroscopic”. For the same compound, the “water uptake … to 95%” value in data set [4] was “less than 0.30 weight percent”. In data set [5] (20 °C, organic solvent or mixture, thermodynamic from solid, equilibration 2 day), the solubility at 2 day was determined as 12.4 mg/mL (≈ 30.3 mM). Moreover, the solubility at 4 h in data set [5] (30 °C, organic solvent or mixture, thermodynamic from solid, equilibration 4 h) was found to be 15.5 mg/mL (≈ 37.8 mM); in data set [5] (60 °C, organic solvent or mixture, thermodynamic from solid, equilibration 4 h), 31.7 mg/mL (≈ 77.4 mM). Also, the solubility at 7 h in data set [5] (40 °C, organic solvent or mixture, thermodynamic from solid, equilibration 7 h) was 18.8 mg/mL (≈ 45.9 mM). Besides, the solubility at 20 h in data set [5] (50 °C, organic solvent or mixture, thermodynamic from solid, equilibration 20 h) was found to be 25 mg/mL (≈ 61 mM).
As for `C[C@@]1(O)CC[C@H]2[C@H](CC[C@@H]3[C@@H]2CC[C@]2(C)[C@@H](C(=O)Cn4cc(C#N)cn4)CC[C@@H]32)C1` [Form E], the “form after drying (XRPD)” value in data set [2] (drying at ambient (room temperature) conditions) is “transformed to a mixture of Forms A and C that exhibited low crystallinity”.
